Data taken from patent US6914045B2, “Glycopeptide antibiotics” (Wyeth Holdings Corporation, priority 2001, dated 2005).

Tests used:
Experiment in all cases: in vitro antibacterial evaluation, MIC by broth dilution
Format in all cases: cell-based
Enterococcus sp. = settings: broth dilution, 18 hours at 35° C.
In short: (§1)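 Broth dilution per NCCLS standard M7-A2 in Muller-Hinton II […], with an inoculum of 5×10^5 CFU/mL and antibiotic spanning 64-0.06 μg/mL. The MIC is the lowest concentration that inhibits growth of the organism.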

Staphylococcus sp. = settings: broth dilution, 18 hours at 35° C.
In short: as §1

Streptococcus sp. = settings: broth dilution, 18 hours at 35° C.
In short: as §1

Escherichia coli = settings: 18 hours at 35° C.

CC(c1ccccc1)C1NC(=O)CNC(=O)C(CO)NC(=O)C(C(O)C2CNC(=N)N2C2OC(CO)C(O)C(O)C2O)NC(=O)C(C(O)C2CNC(=N)N2)NC(=O)C(Cc2ccc(OC3OC(CO)C(OC4OC(CO)C(OCC=Cc5ccc(N(C)C)cc5)C(O)C4O)C(O)C3O)cc2)NC1=O (stereo not shown) [Example 243a]
2 µg/mL: MIC Streptococcus pneumoniae (GC 4565) (Streptococcus sp.) | MIC Streptococcus pneumoniae (GC 4565) (Streptococcus sp.; inoculum 5×10^5 CFU/mL, strain GC 4565)
16 µg/mL: MIC Enterococcus avium (GC 4558) (Enterococcus sp.) | MIC Enterococcus faecium (GC 4557) (Enterococcus sp.) | MIC Enterococcus faecium (GC 4557) (Enterococcus sp.; strain GC 4557) | MIC Enterococcus avium (GC 4558) (Enterococcus sp.; strain GC 4558) | MIC Coagulase Negative Staphylococcus (GC 4549) (Staphylococcus sp.) | MIC Coagulase Negative Staphylococcus (GC 6257) (Staphylococcus sp.) | MIC Coagulase Negative Staphylococcus (GC 4549) (Staphylococcus sp.; strain GC 4549) | MIC Coagulase Negative Staphylococcus (GC 6257) (Staphylococcus sp.; strain GC 6257) | MIC Streptococcus agalactiae (GC 4564) (Streptococcus sp.) | MIC Streptococcus pneumoniae (ATCC 6301) (Streptococcus sp.) | MIC Streptococcus pneumoniae (ATCC 6301) (Streptococcus sp.; inoculum 5×10^5 CFU/mL, strain ATCC 6301) | MIC Streptococcus agalactiae (GC 4564) (Streptococcus sp.; inoculum 5×10^5 CFU/mL, strain GC 4564)
32 µg/mL: MIC Enterococcus faecalis (ATCC 29212) (Enterococcus sp.) | MIC Enterococcus faecalis (GC 2242) (Enterococcus sp.) | MIC Enterococcus faecalis (GC 2691) (Enterococcus sp.) | MIC Enterococcus faecalis (GC 3059) (Enterococcus sp.) | MIC Enterococcus faecalis (GC 4552) (Enterococcus sp.) | MIC Enterococcus faecalis (GC 4553) (Enterococcus sp.) | MIC Enterococcus faecalis (GC 4554) (Enterococcus sp.) | MIC Enterococcus faecalis (GC 6189) (Enterococcus sp.) | MIC Enterococcus faecium (GC 2243) (Enterococcus sp.) | MIC Enterococcus faecium (GC 4556) (Enterococcus sp.) | MIC Enterococcus faecalis (ATCC 29212) (Enterococcus sp.; strain ATCC 29212) | MIC Enterococcus faecium (GC 2243) (Enterococcus sp.; strain GC 2243) | MIC Enterococcus faecalis (GC 4552) (Enterococcus sp.; strain GC 4552) | MIC Enterococcus faecalis (GC 4553) (Enterococcus sp.; strain GC 4553) | MIC Enterococcus faecalis (GC 4554) (Enterococcus sp.; strain GC 4554) | MIC Enterococcus faecium (GC 4556) (Enterococcus sp.; strain GC 4556) | MIC Enterococcus faecalis (GC 6189) (Enterococcus sp.; strain GC 6189) | MIC Enterococcus faecalis (GC 2242) (Enterococcus sp.; inoculum 5×10^5 CFU/mL, strain GC 2242) | MIC Enterococcus faecalis (GC 2691) (Enterococcus sp.; inoculum 5×10^5 CFU/mL, strain GC 2691) | MIC Enterococcus faecalis (GC 3059) (Enterococcus sp.; inoculum 5×10^5 CFU/mL, strain GC 3059) | MIC Coagulase Negative Staphylococcus (GC 4547) (Staphylococcus sp.) | MIC Coagulase Negative Staphylococcus (GC 4548) (Staphylococcus sp.) | MIC Coagulase Negative Staphylococcus (GC 4551) (Staphylococcus sp.) | MIC Staphylococcus aureus (ATCC 29213) (Staphylococcus sp.) | MIC Staphylococcus aureus (GC 1131) (Staphylococcus sp.) | MIC Staphylococcus aureus (GC 3051) (Staphylococcus sp.) | MIC Staphylococcus aureus (GC 3053) (Staphylococcus sp.) | MIC Staphylococcus aureus (GC 4541) (Staphylococcus sp.) | MIC Staphylococcus aureus (GC 4542) (Staphylococcus sp.) | MIC Staphylococcus aureus (GC 4544) (Staphylococcus sp.) | MIC Staphylococcus aureus (GC 4545) (Staphylococcus sp.) | MIC Staphylococcus aureus-SMITH (GC 4543) (Staphylococcus sp.) | MIC Staphylococcus haemolyticus (GC 4546) (Staphylococcus sp.) | MIC Staphylococcus aureus (ATCC 29213) (Staphylococcus sp.; strain ATCC 29213) | MIC Staphylococcus aureus (GC 1131) (Staphylococcus sp.; strain GC 1131) | MIC Staphylococcus aureus (GC 3051) (Staphylococcus sp.; strain GC 3051) | MIC Staphylococcus aureus (GC 3053) (Staphylococcus sp.; strain GC 3053) | MIC Staphylococcus aureus (GC 4541) (Staphylococcus sp.; strain GC 4541) | MIC Staphylococcus aureus (GC 4542) (Staphylococcus sp.; strain GC 4542) | MIC Staphylococcus aureus-SMITH (GC 4543) (Staphylococcus sp.; strain GC 4543) | MIC Staphylococcus aureus (GC 4544) (Staphylococcus sp.; strain GC 4544) | MIC Staphylococcus aureus (GC 4545) (Staphylococcus sp.; strain GC 4545) | MIC Staphylococcus haemolyticus (GC 4546) (Staphylococcus sp.; strain GC 4546) | MIC Coagulase Negative Staphylococcus (GC 4547) (Staphylococcus sp.; strain GC 4547) | MIC Coagulase Negative Staphylococcus (GC 4548) (Staphylococcus sp.; strain GC 4548) | MIC Coagulase Negative Staphylococcus (GC 4551) (Staphylococcus sp.; strain GC 4551) | MIC Escherichia coli (GC 4560) (Escherichia coli)
>64 µg/mL: MIC Escherichia coli (ATCC 25922) (Escherichia coli) | MIC Escherichia coli (GC 4559) (Escherichia coli)
8 µg/mL: MIC Streptococcus pyogenes (GC 4563) (Streptococcus sp.) | MIC Streptococcus pyogenes (GC 4563) (Streptococcus sp.; inoculum 5×10^5 CFU/mL, strain GC 4563)
1 µg/mL: MIC Streptococcus pneumoniae (GC 1894) (Streptococcus sp.) | MIC Streptococcus pneumoniae (GC 1894) (Streptococcus sp.; inoculum 5×10^5 CFU/mL, strain GC 1894)
